Experiments:
[1] = Metabolic stability in rat liver microsomes assessed as compound remaining at 1 uM after 30 mins in presence of NADPH by HPLC-MS analysis; assay type: ADME; details: for remaining at 0.5 h, 1 µM: liver microsomes, read-out: Stability
[2] = target: T1, Receptor-type tyrosine-protein kinase FLT3 (Homo sapiens, UniProt P36888); assay: biochemical; assay type: cell-based, Sf21
T1 sequence (P36888 whole entry): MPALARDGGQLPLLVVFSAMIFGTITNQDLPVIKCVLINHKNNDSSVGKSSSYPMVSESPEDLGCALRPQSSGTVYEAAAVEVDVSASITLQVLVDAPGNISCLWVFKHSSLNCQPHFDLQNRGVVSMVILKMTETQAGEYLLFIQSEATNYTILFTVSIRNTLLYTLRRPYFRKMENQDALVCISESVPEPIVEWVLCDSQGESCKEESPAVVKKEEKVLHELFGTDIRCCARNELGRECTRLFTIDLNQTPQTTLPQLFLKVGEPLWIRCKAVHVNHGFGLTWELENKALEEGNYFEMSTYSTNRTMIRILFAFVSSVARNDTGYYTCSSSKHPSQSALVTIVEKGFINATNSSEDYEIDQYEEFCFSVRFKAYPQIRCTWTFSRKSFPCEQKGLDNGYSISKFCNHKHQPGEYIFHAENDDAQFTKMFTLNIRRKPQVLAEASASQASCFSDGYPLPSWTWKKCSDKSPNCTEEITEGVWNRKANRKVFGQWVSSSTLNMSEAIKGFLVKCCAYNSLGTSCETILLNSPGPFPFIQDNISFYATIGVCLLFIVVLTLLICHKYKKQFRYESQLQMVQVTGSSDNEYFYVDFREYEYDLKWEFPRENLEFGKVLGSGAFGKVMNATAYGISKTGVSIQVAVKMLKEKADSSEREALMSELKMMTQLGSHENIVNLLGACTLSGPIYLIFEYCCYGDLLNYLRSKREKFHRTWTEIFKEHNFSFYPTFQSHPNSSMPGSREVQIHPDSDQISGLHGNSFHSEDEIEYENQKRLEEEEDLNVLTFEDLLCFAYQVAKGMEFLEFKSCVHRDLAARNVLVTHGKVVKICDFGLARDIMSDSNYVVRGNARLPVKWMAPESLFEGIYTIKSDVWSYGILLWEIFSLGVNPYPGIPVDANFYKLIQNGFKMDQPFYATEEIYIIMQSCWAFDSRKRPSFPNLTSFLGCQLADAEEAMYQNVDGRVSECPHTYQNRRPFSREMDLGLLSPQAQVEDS
Description: Inhibition of recombinant human FLT3 expressed in insect Sf21 cells preincubated for 15 mins followed by poly(Glu:Tyr) substrate addition for 30 mins in presence of [gamma-32P]ATP by TR-FRET assay

[3] = target: Receptor-type tyrosine-protein kinase FLT3 (Homo sapiens, UniProt P36888, D835Y)
Description: Inhibition of human FLT3 D835Y mutant preincubated for 15 mins followed by poly(Glu:Tyr) substrate addition for 30 mins in presence of [gamma-32P]ATP by TR-FRET assay

[4] = Metabolic stability in human liver microsomes assessed as compound remaining at 1 uM after 30 mins in presence of NADPH by HPLC-MS analysis; assay type: ADME; details: read-out: Stability
[5] = cells; details: Homo sapiens, MV4-11, 48 h
Description: Growth inhibition of human MV4-11 cells expressing FLT3-ITD after 48 hrs by XTT assay

[6] = target: Angiopoietin-1 receptor (Homo sapiens, UniProt Q02763); assay: Inhibition of human TIE2 assessed as remaining activity at 10 uM preincubated for 15 mins followed by substrate addition measured after 30 mins in presence of [gamma-32P]ATP by […] assay
Angiopoietin-1 receptor, sequence (Q02763 whole entry): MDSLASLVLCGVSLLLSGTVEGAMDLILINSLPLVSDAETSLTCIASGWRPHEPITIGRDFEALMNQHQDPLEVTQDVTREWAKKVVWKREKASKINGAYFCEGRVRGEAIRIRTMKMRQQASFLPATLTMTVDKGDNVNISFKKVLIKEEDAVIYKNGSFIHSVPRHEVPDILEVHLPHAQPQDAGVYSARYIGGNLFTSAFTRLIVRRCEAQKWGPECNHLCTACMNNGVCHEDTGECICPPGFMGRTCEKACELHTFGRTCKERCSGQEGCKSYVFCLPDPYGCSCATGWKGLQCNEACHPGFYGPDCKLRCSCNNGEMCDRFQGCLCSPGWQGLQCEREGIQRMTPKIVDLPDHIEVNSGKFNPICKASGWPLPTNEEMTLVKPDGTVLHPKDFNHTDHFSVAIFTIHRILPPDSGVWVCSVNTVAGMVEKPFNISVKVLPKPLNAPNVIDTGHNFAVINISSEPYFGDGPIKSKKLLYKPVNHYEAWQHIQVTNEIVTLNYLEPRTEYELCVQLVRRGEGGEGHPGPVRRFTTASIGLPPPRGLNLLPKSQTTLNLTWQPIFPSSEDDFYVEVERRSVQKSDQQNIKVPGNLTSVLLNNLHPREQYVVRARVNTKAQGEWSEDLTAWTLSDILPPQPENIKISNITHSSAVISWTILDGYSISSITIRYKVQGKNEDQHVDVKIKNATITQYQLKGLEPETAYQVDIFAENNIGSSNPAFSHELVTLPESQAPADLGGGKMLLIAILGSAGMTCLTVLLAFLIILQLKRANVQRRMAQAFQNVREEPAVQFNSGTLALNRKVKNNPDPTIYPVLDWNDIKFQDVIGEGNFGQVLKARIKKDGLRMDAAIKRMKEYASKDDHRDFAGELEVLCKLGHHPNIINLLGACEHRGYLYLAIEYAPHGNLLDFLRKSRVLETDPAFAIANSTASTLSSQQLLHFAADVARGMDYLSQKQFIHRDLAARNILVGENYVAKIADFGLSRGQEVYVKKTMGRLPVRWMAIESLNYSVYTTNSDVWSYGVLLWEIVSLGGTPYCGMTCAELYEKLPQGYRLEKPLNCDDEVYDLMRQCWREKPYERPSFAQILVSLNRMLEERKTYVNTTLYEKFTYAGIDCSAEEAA

[7] = cells; details: Homo sapiens, HL-60, 48 h
Description: Growth inhibition of human HL60 cells expressing wild type FLT-3 after 48 hrs by XTT assay

[8] = cells; details: Homo sapiens, K562, 48 h
Description: Growth inhibition of human K562 cells after 48 hrs by XTT assay

[9] = target: Tyrosine-protein kinase ABL1 (Homo sapiens, UniProt P00519); assay: Inhibition of recombinant human ABL1 expressed in insect cells assessed as remaining activity at 10 uM preincubated for 15 mins followed by poly(Glu:Tyr) substrate addition for 30 mins in presence of [gamma-32P]ATP by […] assay
Tyrosine-protein kinase ABL1, sequence (P00519 whole entry): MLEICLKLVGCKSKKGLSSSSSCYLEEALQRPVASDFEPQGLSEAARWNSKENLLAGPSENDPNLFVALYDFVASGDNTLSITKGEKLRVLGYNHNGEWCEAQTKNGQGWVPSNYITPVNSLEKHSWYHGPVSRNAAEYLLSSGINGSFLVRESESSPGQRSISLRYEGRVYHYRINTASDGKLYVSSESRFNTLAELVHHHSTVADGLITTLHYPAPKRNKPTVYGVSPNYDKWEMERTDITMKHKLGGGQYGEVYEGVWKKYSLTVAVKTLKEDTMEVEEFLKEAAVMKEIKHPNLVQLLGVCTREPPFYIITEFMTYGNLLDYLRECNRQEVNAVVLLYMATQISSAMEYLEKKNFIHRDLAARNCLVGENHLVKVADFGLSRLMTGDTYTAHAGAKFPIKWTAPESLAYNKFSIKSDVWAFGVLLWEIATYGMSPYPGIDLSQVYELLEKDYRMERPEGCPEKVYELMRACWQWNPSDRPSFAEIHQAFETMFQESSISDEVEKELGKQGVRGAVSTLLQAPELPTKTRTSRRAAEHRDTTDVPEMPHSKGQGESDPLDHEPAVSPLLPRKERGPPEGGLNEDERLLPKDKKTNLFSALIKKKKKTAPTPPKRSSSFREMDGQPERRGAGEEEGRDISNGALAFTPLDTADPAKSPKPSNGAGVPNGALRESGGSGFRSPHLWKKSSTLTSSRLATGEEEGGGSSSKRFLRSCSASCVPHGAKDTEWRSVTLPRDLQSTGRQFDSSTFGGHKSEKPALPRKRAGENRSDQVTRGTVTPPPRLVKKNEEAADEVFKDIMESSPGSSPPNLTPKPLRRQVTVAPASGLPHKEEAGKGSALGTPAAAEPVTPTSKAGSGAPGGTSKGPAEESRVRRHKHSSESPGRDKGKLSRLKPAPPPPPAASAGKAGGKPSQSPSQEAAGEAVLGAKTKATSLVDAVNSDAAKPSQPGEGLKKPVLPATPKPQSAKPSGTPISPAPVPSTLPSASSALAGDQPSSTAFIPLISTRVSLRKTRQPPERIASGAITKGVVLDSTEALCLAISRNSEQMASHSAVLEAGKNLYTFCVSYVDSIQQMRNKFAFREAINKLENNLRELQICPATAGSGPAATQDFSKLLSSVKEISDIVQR

[10] = cells; details: Homo sapiens, THP-1, 48 h
Description: Growth inhibition of human THP1 cells expressing wild type FLT-3 after 48 hrs by XTT assay

Row | SMILES | remaining at 0.5 h, 1 µM [1] [%] | IC50 [2] [nM] | IC50 [3] [nM] | remaining at 0.5 h, 1 µM [4] [%] | GI50 [5] [nM] | Activity [6] [%] | GI50 [7] [nM] | GI50 [8] [nM] | Activity [9] [%] | GI50 [10] [nM] | Stability ([1]; microsomes, 0.5 h, 1 µM)
1 | CC1=CC(=O)N(Nc2nc(-c3cccs3)nc3sc(-c4ccc(OCCNCCC#N)cc4)c(C)c23)C1=O | 32.1 | 191 | 29.4 | 52 |  |  |  |  |  |  | 
2 | CC1=CC(=O)N(Nc2nc(-c3cccs3)nc3sc(C#N)c(C)c23)C1=O | 26.1 | 118 | 75 | 52.7 |  |  |  |  |  |  | 
3 | CC1=CC(=O)N(Nc2nc(-c3cccs3)nc3sc(CO)c(C)c23)C1=O | 20.4 |  |  | 24.6 |  |  |  |  |  |  | 
4 | CC1=CC(=O)N(Nc2nc(-c3cccs3)nc3sc(-c4ccc(O)cc4)c(C)c23)C1=O | 28.8 |  |  | 71.8 |  |  |  |  |  |  | 
5 | CC1=CC(=O)N(Nc2nc(-c3cccs3)nc3sc(-c4ccc(OC5CCNC5)cc4)c(C)c23)C1=O (stereo not given) | 34.2 | 3.77 | 29.3 | 50.8 | 366 | 25 | 214 | 315 | 26 | 227 | 
6 | CC1=CC(=O)N(Nc2nc(-c3cccs3)nc3sc(-c4ccc(O)cc4)cc23)C1=O | 28.2 | 75.5 | 78.7 | 74.1 | 927 |  | 336 | 506 |  | 765 | 
7 | CC1=CC(=O)N(Nc2nc(-c3cccs3)nc3sc(-c4ccc(OCCNCc5ccccc5)cc4)c(C)c23)C1=O | 30.4 | 71.9 | 9.48 | 86.2 |  |  |  |  |  |  | 
8 | COc1ccc(-c2cc3c(NN4C(=O)C=C(C)C4=O)nc(-c4cccs4)nc3s2)cc1 |  | 68.6 | 47.1 |  | 1700 |  | 682 | 1090 |  | 1270 | 
9 | CC1=CC(=O)N(Nc2nc(-c3cccs3)nc3sc(-c4ccc(OCCNCCO)cc4)c(C)c23)C1=O.Cl |  | 5.31 | 0.334 | 91.3 | 1130 |  | 1340 | 1410 |  | 843 | Nd(Unstable)
10 | CC1=CC(=O)N(Nc2nc(-c3cccs3)nc3sc(C)c(C)c23)C1=O | 22.7 | 11.4 | 13.7 | 32.4 | 191 | 32 | 127 | 105 | 29 | 222 | 
11 | CC1=CC(=O)N(Nc2nc(-c3cccs3)nc3sc(-c4ccc(F)cc4)c(C)c23)C1=O | 54.5 |  |  | 39.5 |  |  |  |  |  |  | 
12 | CC1=CC(=O)N(Nc2nc(-c3cccs3)nc3sc(-c4ccc(OCC5CCCO5)cc4)c(C)c23)C1=O (stereo not given) | 41 |  |  | 41.7 |  |  |  |  |  |  | 
13 | CC1=CC(=O)N(Nc2nc(-c3cccs3)nc3sc(-c4ccc(OC5CCNCC5)cc4)c(C)c23)C1=O | 47.8 | 31.4 | 27.2 | 52.4 | 580 |  | 377 | 425 |  | 460 | 
14 | CC1=CC(=O)N(Nc2nc(-c3cccs3)nc3sc(C)cc23)C1=O | 32.6 | 16.8 | 14.7 | 58.8 | 1060 |  | 422 | 1000 |  | 1240 | 
15 | CC1=CC(=O)N(Nc2nc(-c3cccs3)nc3sc(-c4ccc(F)cc4)cc23)C1=O | 26.9 | 124 | 54.4 | 61 |  |  |  |  |  |  | 
16 | CC1=CC(=O)N(Nc2nc(-c3cccs3)nc3sc(-c4ccc(OCCNCC(C)C)cc4)c(C)c23)C1=O | 39.7 | 2.5 | 35.9 | 66.2 | 278 |  | 598 | 489 |  | 449 | 
17 | CC1=CC(=O)N(Nc2nc(-c3cccs3)nc3sc(-c4ccc(OCc5ccc(F)cc5)cc4)c(C)c23)C1=O | 35.6 |  |  | 66.9 |  |  |  |  |  |  | 
18 | CC1=CC(=O)N(Nc2nc(-c3cccs3)nc3sc(-c4ccc(OCCN5CCCC5)cc4)c(C)c23)C1=O | 41.5 | 6.43 | 16.5 | 72.7 | 585 |  | 1260 | 1040 |  | 636 | 
